Paper PMC9655119, “Sustained Activation of CLR/RAMP Receptors by Gel-Forming Agonists” (International Journal of Molecular Sciences, 2022)
Like-named read-outs stand apart in the source and are kept apart here. Positions of bridges follow the written chain, without caps; N, C: chain ends. Non-standard residues stand in square brackets, D forms with d. Residues, ends and D or L forms follow the SMILES beside them. *: point of attachment. Palmitoyl = CCCCCCCCCCCCCCCC(=O)*; AEEA = NCCOCCOCC(=O)O

Assays:
[1] = target: T1, human CLR/RAMP2 (Homo sapiens, UniProt O60895+Q16602); assay: CLR/RAMP2 receptor-activation assay (PathHunter β-Arrestin); format: cell-based; details: for Emax: read-out: CLR/RAMP2 Max Activity
T1 construct: host or cells: CHO-K1 cells (PathHunter β-Arrestin cell line)
T1 sequence (Q16602 23-461): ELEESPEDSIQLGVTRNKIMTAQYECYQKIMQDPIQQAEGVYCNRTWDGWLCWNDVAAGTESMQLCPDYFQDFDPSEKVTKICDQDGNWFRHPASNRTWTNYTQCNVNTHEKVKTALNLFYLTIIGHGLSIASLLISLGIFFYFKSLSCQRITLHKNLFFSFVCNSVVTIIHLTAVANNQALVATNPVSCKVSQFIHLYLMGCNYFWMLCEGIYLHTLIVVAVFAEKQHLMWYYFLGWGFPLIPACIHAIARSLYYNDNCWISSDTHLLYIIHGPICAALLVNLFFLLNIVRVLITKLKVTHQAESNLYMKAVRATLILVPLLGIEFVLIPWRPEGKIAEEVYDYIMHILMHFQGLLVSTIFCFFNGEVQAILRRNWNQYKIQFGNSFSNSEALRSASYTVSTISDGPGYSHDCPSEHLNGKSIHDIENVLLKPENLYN
T1 sequence (O60895 43-175): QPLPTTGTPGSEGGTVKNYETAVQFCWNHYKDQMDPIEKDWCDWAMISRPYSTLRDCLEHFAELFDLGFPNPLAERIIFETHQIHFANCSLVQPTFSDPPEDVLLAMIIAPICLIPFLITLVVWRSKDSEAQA
Experimental: (§1) The bioactivity of peptide analogs was studied using CLR/RAMP1, CLR/RAMP2, and CLR/RAMP3 assays by DiscoveRx (Fremont, CA, USA) in cells that stably express human CLR/RAMP1 (1321N1 cells), CLR/RAMP2 (CHO-K1 cells), or CLR/RAMP3 (CHO-K1 cells). The dose-dependent stimulatory effect of agonists was studied in duplicate, at 10 different concentrations. Determination of the half-maximal effective concentration (EC50) was performed using a 10-point dose-response curves. The starting concentration was 1.0 μM, and it was serially diluted 3-fold, in DMSO.
In this assay, the CLR was fused in frame with a small enzyme donor fragment ProLink™ (PK). The receptor was co-expressed with a fusion protein of β-arrestin and an N-terminal deletion mutant of β-galactosidase (i.e., enzyme acceptor). Activation of the CLR/RAMP2 receptor stimulated the binding of β-arrestin to the PK-tagged receptor and led to an increase in enzyme activities which can then be measured with the PathHunter detection reagents. PathHunter cell lines were seeded in a total volume of 20 μL into 384-well microplates and incubated at 37 °C prior to the assay. Intermediate dilution of samples was performed to generate 5X samples in the assay buffer. A 5 μL aliquot of 5X sample was added to cells and incubated at 37 °C for 90 min. Vehicle concentration was 1%.

[2] = target: T2, human CLR/RAMP1 (Homo sapiens, UniProt O60894+Q16602); assay: CLR/RAMP1 receptor-activation assay (DiscoverX cAMP Hunter, HitHunter cAMP XS+); format: cell-based; details: for Emax: read-out: CLR/RAMP1 Max Activity
T2 construct: host or cells: 1321N1 cells (cAMP Hunter cell line)
T2 sequence (Q16602 23-461): as the sequence (Q16602 23-461) above
T2 sequence (O60894 27-148): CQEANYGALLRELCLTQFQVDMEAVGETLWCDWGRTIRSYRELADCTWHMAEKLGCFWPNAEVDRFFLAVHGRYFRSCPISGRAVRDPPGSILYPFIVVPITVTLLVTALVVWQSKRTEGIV
Experimental: as §1
Cells were seeded in a total volume of 20 μL into 384-well microplates, and the activity was determined using the DiscoverX HitHunter cAMP XS + assay. Before the assay, media was aspirated from cells and replaced with 15 μL 2:1 HBSS/10 mM Hepes: cAMP XS + Ab reagent. Intermediate dilution of samples was performed to generate 4X sample in assay buffer, and 5 μL of the 4X sample was added to cells and incubated at 37°C. Vehicle concentration was 1%.
The chemiluminescent signal was read with a PerkinElmer instrument.

[3] = percentage of positive control β-CGRP

| EC50 ([1]; CHO-K1 cells stably expressing human CLR/RAMP2, β-arrestin recruitment, 90 min at 37 °C, 10-point dose-response in duplicate, start 1.0 μM, 3-fold dilution in DMSO) | Emax ([1]; percentage of positive control ADM1-52) | EC50 ([2]; 1321N1 cells stably expressing human CLR/RAMP1, cAMP read-out, 10-point dose-response in duplicate, start 1.0 μM, 3-fold serial dilution in DMSO) | Emax [2, 3] | SMILES | Emax [1] | Emax [2] |
| --- | --- | --- | --- | --- | --- | --- |
|  |  |  |  | CCCCCCCCCCCCCCCC(=O)NCCCC[C@H](NC(=O)COCCOCCN)C(=O)NCC(=O)N[C@H]1CSSC[C@@H](C(=O)N[C@H](C(=O)N[C@H](C(=O)N[C@@H](CCC(N)=O)C(=O)N[C@@H](CCCCN)C(=O)N[C@@H](CC(C)C)C(=O)N[C@@H](C)C(=O)N[C@@H](Cc2c[nH]cn2)C(=O)N[C@@H](CCC(N)=O)C(=O)N[C@H](C(=O)N[C@@H](Cc2ccc(O)cc2)C(=O)N[C@@H](CCC(N)=O)C(=O)N[C@@H](Cc2ccccc2)C(=O)N[C@H](C(=O)N[C@@H](CC(=O)O)C(=O)N[C@@H](CCCCN)C(=O)N[C@@H](CC(=O)O)C(=O)N[C@@H](CCCCN)C(=O)N[C@@H](CC(=O)O)C(=O)N[C@@H](CC(N)=O)C(=O)N[C@@H](CO)C(=O)N[C@@H](C)C(=O)N2CCC[C@H]2C(=O)N[C@H](C(=O)N[C@@H](CC(=O)O)C(=O)N2CCC[C@H]2C(=O)N[C@@H](CO)C(=O)N[C@@H](CO)C(=O)N2CCC[C@H]2C(=O)N[C@@H](Cc2c[nH]cn2)C(=O)N[C@@H](CO)C(=O)N[C@@H](Cc2ccc(O)cc2)C(N)=O)C(C)C)[C@@H](C)O)[C@@H](C)CC)C(C)C)[C@@H](C)O)NC(=O)[C@H]([C@@H](C)O)NC(=O)CNC(=O)[C@H](Cc2ccccc2)NC(=O)[C@H](CCCNC(=N)N)NC1=O [Analog B-1] | 143% | 54% |
| 0.5 nM | 86% | 0.2 nM | 82% | CCCCCCCCCCCCCCCC(=O)NCCCC[C@H](NC(=O)[C@@H](N)[C@@H](C)O)C(=O)N[C@@H](CCCCN)C(=O)N[C@H](C(=O)N[C@@H](CC(C)C)C(=O)N[C@@H](CCCNC(=N)N)C(=O)N[C@H](C(=O)NCC(=O)N[C@H]1CSSC[C@@H](C(=O)N[C@H](C(=O)N[C@H](C(=O)N[C@@H](CCC(N)=O)C(=O)N[C@@H](CCCCN)C(=O)N[C@@H](CC(C)C)C(=O)N[C@@H](C)C(=O)N[C@@H](Cc2c[nH]cn2)C(=O)N[C@@H](CCC(N)=O)C(=O)N[C@H](C(=O)N[C@@H](Cc2ccc(O)cc2)C(=O)N[C@@H](CCC(N)=O)C(=O)N[C@@H](Cc2ccccc2)C(=O)N[C@H](C(=O)N[C@@H](CC(=O)O)C(=O)N[C@@H](CCCCN)C(=O)N[C@@H](CC(=O)O)C(=O)N[C@@H](CCCCN)C(=O)N[C@@H](CC(=O)O)C(=O)N[C@@H](CC(N)=O)C(=O)N[C@@H](CO)C(=O)N[C@@H](C)C(=O)N2CCC[C@H]2C(=O)N[C@H](C(=O)N[C@@H](CC(=O)O)C(=O)N2CCC[C@H]2C(=O)N[C@@H](CO)C(=O)N[C@@H](CO)C(=O)N2CCC[C@H]2C(=O)N[C@@H](Cc2c[nH]cn2)C(=O)N[C@@H](CO)C(=O)N[C@@H](Cc2ccc(O)cc2)C(N)=O)C(C)C)[C@@H](C)O)[C@@H](C)CC)C(C)C)[C@@H](C)O)NC(=O)[C@H]([C@@H](C)O)NC(=O)CNC(=O)[C@H](Cc2ccccc2)NC(=O)[C@H](CCCNC(=N)N)NC1=O)[C@@H](C)O)[C@@H](C)O [Analog C-4] |  |  |
|  |  |  |  | CCCCCCCCCCCCCCCC(=O)NCCCC[C@H](NC(=O)COCCOCCN)C(=O)NCC(=O)N[C@H]1CSSC[C@@H](C(=O)N[C@H](C(=O)N[C@H](C(=O)N[C@@H](CCC(N)=O)C(=O)N[C@@H](CCCCN)C(=O)N[C@@H](CC(C)C)C(=O)N[C@@H](C)C(=O)N[C@@H](Cc2c[nH]cn2)C(=O)N[C@@H](CCC(N)=O)C(=O)N[C@H](C(=O)N[C@@H](Cc2ccc(O)cc2)C(=O)N[C@@H](CCC(N)=O)C(=O)N[C@@H](Cc2ccccc2)C(=O)N[C@H](C(=O)N[C@@H](CC(=O)O)C(=O)N[C@@H](CCCCN)C(=O)N[C@@H](CC(=O)O)C(=O)N[C@@H](CCCCN)C(=O)N[C@@H](CC(=O)O)C(=O)N[C@@H](CC(N)=O)C(=O)N[C@H](C(=O)N[C@@H](C)C(=O)N2CCC[C@H]2C(=O)N[C@@H](CCCNC(=N)N)C(=O)N[C@@H](CO)C(=O)N[C@@H](CCCCN)C(=O)N[C@H](C(=O)N[C@@H](CO)C(=O)N2CCC[C@H]2C(=O)N[C@@H](CCC(N)=O)C(=O)NCC(=O)N[C@@H](Cc2ccc(O)cc2)C(N)=O)[C@@H](C)CC)C(C)C)[C@@H](C)O)[C@@H](C)CC)C(C)C)[C@@H](C)O)NC(=O)[C@H]([C@@H](C)O)NC(=O)CNC(=O)[C@H](Cc2ccccc2)NC(=O)[C@H](CCCNC(=N)N)NC1=O [Analog C-7] | 147% | 70% |
|  |  |  |  | CCCCCCCCCCCCCCCC(=O)NCCCC[C@H](NC(=O)COCCOCCN)C(=O)N[C@H](C(=O)N[C@@H](CCCCN)C(=O)N[C@@H](CCCCN)C(=O)N[C@H](C(=O)N[C@@H](CC(C)C)C(=O)N[C@@H](CCCNC(=N)N)C(=O)N[C@H](C(=O)NCC(=O)N[C@H]1CSSC[C@@H](C(=O)N[C@H](C(=O)N[C@H](C(=O)N[C@@H](CCC(N)=O)C(=O)N[C@@H](CCCCN)C(=O)N[C@@H](CC(C)C)C(=O)N[C@@H](C)C(=O)N[C@@H](Cc2c[nH]cn2)C(=O)N[C@@H](CCC(N)=O)C(=O)N[C@H](C(=O)N[C@@H](Cc2ccc(O)cc2)C(=O)N[C@@H](CCC(N)=O)C(=O)N[C@@H](Cc2ccccc2)C(=O)N[C@H](C(=O)N[C@@H](CC(=O)O)C(=O)N[C@@H](CCCCN)C(=O)N[C@@H](CC(=O)O)C(=O)N[C@@H](CCCCN)C(=O)N[C@@H](CC(=O)O)C(=O)N[C@@H](CC(N)=O)C(=O)N[C@H](C(=O)N[C@@H](C)C(=O)N2CCC[C@H]2C(=O)N[C@@H](CCCNC(=N)N)C(=O)N[C@@H](CO)C(=O)N[C@@H](CCCCN)C(=O)N[C@H](C(=O)N[C@@H](CO)C(=O)N2CCC[C@H]2C(=O)N[C@@H](CCC(N)=O)C(=O)NCC(=O)N[C@@H](Cc2ccc(O)cc2)C(N)=O)[C@@H](C)CC)C(C)C)[C@@H](C)O)[C@@H](C)CC)C(C)C)[C@@H](C)O)NC(=O)[C@H]([C@@H](C)O)NC(=O)CNC(=O)[C@H](Cc2ccccc2)NC(=O)[C@H](CCCNC(=N)N)NC1=O)[C@@H](C)O)[C@@H](C)O)[C@@H](C)O [Analog C-8] | 68% | 69% |
|  |  |  |  | CCCCCCCCCCCCCCCC(=O)NCCCC[C@H](NC(=O)COCCOCCN)C(=O)NCC(=O)N[C@H]1CSSC[C@@H](C(=O)N[C@H](C(=O)N[C@H](C(=O)N[C@@H](CCC(N)=O)C(=O)N[C@@H](CCCCN)C(=O)N[C@@H](CC(C)C)C(=O)N[C@@H](C)C(=O)N[C@@H](Cc2c[nH]cn2)C(=O)N[C@@H](CCC(N)=O)C(=O)N[C@H](C(=O)N[C@@H](Cc2ccc(O)cc2)C(=O)N[C@@H](CCC(N)=O)C(=O)N[C@@H](Cc2ccccc2)C(=O)N[C@H](C(=O)N[C@@H](CC(=O)O)C(=O)N[C@@H](CCCCN)C(=O)N[C@@H](CC(=O)O)C(=O)N[C@@H](CO)C(=O)N[C@@H](C)C(=O)N2CCC[C@H]2C(=O)N[C@H](C(=O)N[C@@H](CC(=O)O)C(=O)N2CCC[C@H]2C(=O)N[C@@H](CO)C(=O)N[C@@H](CO)C(=O)N2CCC[C@H]2C(=O)N[C@@H](Cc2c[nH]cn2)C(=O)N[C@@H](CO)C(=O)N[C@@H](Cc2ccc(O)cc2)C(N)=O)C(C)C)[C@@H](C)O)[C@@H](C)CC)C(C)C)[C@@H](C)O)NC(=O)[C@H]([C@@H](C)O)NC(=O)CNC(=O)[C@H](Cc2ccccc2)NC(=O)[C@H](CCCNC(=N)N)NC1=O [Analog D-1] (H-[AEEA]K(Palmitoyl)GCRFGTCTVQKLAHQIYQFTDKDSAPVDPSSPHSY-NH2; disulfide 4-9) | 77% | 78% |
|  |  |  | 103% | CSCC[C@H](NC(=O)CNC(=O)CNC(=O)[C@H](CO)NC(=O)[C@H](CCCNC(=N)N)NC(=O)[C@H](CO)NC(=O)[C@H](CC(C)C)NC(=O)[C@H](CC(C)C)NC(=O)CNC(=O)[C@H](C)NC(=O)[C@H](CC(C)C)NC(=O)[C@H](CCCNC(=N)N)NC(=O)[C@H](Cc1c[nH]cn1)NC(=O)[C@@H](NC(=O)[C@@H](NC(=O)[C@@H]1CSSC[C@H](NC(=O)[C@H](C)N)C(=O)N[C@@H](CC(N)=O)C(=O)N[C@@H]([C@@H](C)O)C(=O)N[C@@H](C)C(=O)N[C@@H]([C@@H](C)O)C(=O)N1)C(C)C)[C@@H](C)O)C(=O)N[C@H](C(=O)N[C@@H](CCCCN)C(=O)N[C@@H](CO)C(=O)N[C@@H](CC(N)=O)C(=O)N[C@@H](Cc1ccccc1)C(=O)N[C@H](C(=O)N1CCC[C@H]1C(=O)N[C@H](C(=O)N[C@@H](CC(N)=O)C(=O)N[C@H](C(=O)NCC(=O)N[C@@H](CO)C(=O)N[C@@H](CCCCN)C(=O)N[C@@H](C)C(=O)N[C@@H](Cc1ccccc1)C(N)=O)C(C)C)[C@@H](C)O)C(C)C)C(C)C [CGRP, calcitonin gene-related peptide, reference compound] |  |  |
